Counter-ions that a name gives are not always drawn. Like-named read-outs stand apart in the source and are kept apart here.
Legend:
CMV-polymerase = CMV-polymerase (Human cytomegalovirus (strain AD169) (HHV-5) (Human herpesvirus 5), UniProt P08546); assay: biochemical
CMV = assay: microbe, parasite or virus in culture; format: cell-based; conditions: Human betaherpesvirus 5, 72 h, read-out: CMV-Luc Cellular EC50, NN-NHDF cells, MOI 1, 72 hrs
[1] = read-out: CMV-polymerase Biochemical IC50
[2] = CMV-polymerase Biochemical IC50

| Compound | IC50 (CMV-polymerase; [1]) | EC50 (CMV) | IC50 (CMV-polymerase; [2]) |
| --- | --- | --- | --- |
| Cn1ccc(NS(=O)(=O)C2(CN3CCc4c(C(=O)NCc5ccc(C#N)cc5)nn(C)c4C3=O)CC2)n1 [Example 156, N-(4-Cyanobenzyl)-1-methyl-6-((1-(N-(1-methyl-1H-pyrazol-3-yl)sulfamoyl)cyclopropyl)methyl)-7-oxo-4,5,6,7-tetrahydro-1H-pyrazolo[3,4-c]pyridine-3-carboxamide] | 3 nM | 100 nM |  |
| Cc1cccc(NS(=O)(=O)C2(CN3CCc4c(C(=O)NCc5ccc(C#N)cc5)nn(C)c4C3=O)CC2)n1 [Example 157, N-(4-Cyanobenzyl)-1-methyl-6-((1-(N-(6-methylpyridin-2-yl)sulfamoyl)cyclopropyl)methyl)-7-oxo-4,5,6,7-tetrahydro-1H-pyrazolo[3,4-c]pyridine-3-carboxamide] | 2 nM | 58 nM |  |
| Cn1nc(C(=O)NCc2ccc(Cl)cc2)c2c1C(=O)N(CC1(S(=O)(=O)Nc3ccccn3)CC1)CC2 [Example 158, N-(4-Chlorobenzyl)-1-methyl-7-oxo-6-((1-(N-(pyridin-2-yl)sulfamoyl)cyclopropyl)methyl)-4,5,6,7-tetrahydro-1H-pyrazolo[3,4-c]pyridine-3-carboxamide] | 3 nM | 37 nM |  |
| COc1cccnc1NS(=O)(=O)C1(CN2CCc3c(C(=O)NCc4ccc(C#N)cc4)nn(C)c3C2=O)CC1 [Example 159, N-(4-Cyanobenzyl)-6-((1-(N-(3-methoxypyridin-2-yl)sulfamoyl)cyclopropyl)methyl)-1-methyl-7-oxo-4,5,6,7-tetrahydro-1H-pyrazolo[3,4-c]pyridine-3-carboxamide] | 13 nM | 298 nM |  |
| COc1ccc(C)nc1NS(=O)(=O)C1(CN2CCc3c(C(=O)NCc4ccc(C#N)cc4)nn(C)c3C2=O)CC1 [Example 160, N-(4-Cyanobenzyl)-6-((1-(N-(3-methoxy-6-methylpyridin-2-yl)sulfamoyl)cyclopropyl)methyl)-1-methyl-7-oxo-4,5,6,7-tetrahydro-1H-pyrazolo[3,4-c]pyridine-3-carboxamide] | 6 nM | 118 nM |  |
| Cc1ncccc1NS(=O)(=O)C1(CN2CCc3c(C(=O)NCc4ccc(C#N)cc4)nn(C)c3C2=O)CC1 [Example 161, N-(4-Cyanobenzyl)-1-methyl-6-((1-(N-(2-methylpyridin-3-yl)sulfamoyl)cyclopropyl)methyl)-7-oxo-4,5,6,7-tetrahydro-1H-pyrazolo[3,4-c]pyridine-3-carboxamide] | 2 nM | 61 nM |  |
| COc1ncccc1NS(=O)(=O)C1(CN2CCc3c(C(=O)NCc4ccc(C#N)cc4)nn(C)c3C2=O)CC1 [Example 162, N-(4-Cyanobenzyl)-6-((1-(N-(2-methoxypyridin-3-yl)sulfamoyl)cyclopropyl)methyl)-1-methyl-7-oxo-4,5,6,7-tetrahydro-1H-pyrazolo[3,4-c]pyridine-3-carboxamide] | 1 nM | 30 nM |  |
| COc1cccc(NS(=O)(=O)C2(CN3CCc4c(C(=O)NCc5ccc(C#N)cc5)nn(C)c4C3=O)CC2)n1 [Example 163, N-(4-Cyanobenzyl)-6-((1-(N-(6-methoxypyridin-2-yl)sulfamoyl)cyclopropyl)methyl)-1-methyl-7-oxo-4,5,6,7-tetrahydro-1H-pyrazolo[3,4-c]pyridine-3-carboxamide] | 2 nM | 67 nM |  |
| Cc1cccnc1NS(=O)(=O)C1(CN2CCc3c(C(=O)NCc4ccc(C#N)cc4)nn(C)c3C2=O)CC1 [Example 164, N-(4-Cyanobenzyl)-1-methyl-6-((1-(N-(3-methylpyridin-2-yl)sulfamoyl)cyclopropyl)methyl)-7-oxo-4,5,6,7-tetrahydro-1H-pyrazolo[3,4-c]pyridine-3-carboxamide] | 6 nM | 157 nM |  |
| Cc1cc(NS(=O)(=O)C2(CN3CCc4c(C(=O)NCc5ccc(Cl)cc5)nn(C)c4C3=O)CC2)no1 [Example 166, N-(4-Chlorobenzyl)-1-methyl-6-((1-(N-(5-methylisoxazol-3-yl)sulfamoyl)cyclopropyl)methyl)-7-oxo-4,5,6,7-tetrahydro-1H-pyrazolo[3,4-c]pyridine-3-carboxamide] | 1 nM | 88 nM |  |
| Cn1nc(C(=O)NCc2ccc(C#N)cc2)c2c1C(=O)N(CC1(S(=O)(=O)Nc3cc(C4CC4)on3)CC1)CC2 [Example 167, N-(4-Cyanobenzyl)-6-((1-(N-(5-cyclopropylisoxazol-3-yl)sulfamoyl)cyclopropyl)methyl)-1-methyl-7-oxo-4,5,6,7-tetrahydro-1H-pyrazolo[3,4-c]pyridine-3-carboxamide] | 4 nM | 517 nM |  |
| Cn1nc(C(=O)NCc2ccc(C#N)cc2)c2c1C(=O)N(CC1(S(=O)(=O)C3CCOCC3)CC1)CC2 [Example 169, N-(4-Cyanobenzyl)-1-methyl-7-oxo-6-((1-((tetrahydro-2H-pyran-4-yl)sulfonyl)cyclopropyl)methyl)-4,5,6,7-tetrahydro-1H-pyrazolo[3,4-c]pyridine-3-carboxamide] | 14 nM | 201 nM |  |
| Cn1nc(C(=O)NCc2ccc(C#N)cc2)c2c1C(=O)N(CC1(S(=O)(=O)C3(C)COC3)CC1)CC2 [Example 172, N-(4-Cyanobenzyl)-1-methyl-6-((1-((3-methyloxetan-3-yl)sulfonyl)cyclopropyl)methyl)-7-oxo-4,5,6,7-tetrahydro-1H-pyrazolo[3,4-c]pyridine-3-carboxamide] |  | 69 nM | 5 nM |
| Cn1nc(C(=O)NCc2ccc(C#N)cc2)c2c1C(=O)N(CC1(S(=O)(=O)C3(CO)COC3)CC1)CC2 [Example 173, N-(4-Cyanobenzyl)-6-((1-((3-(hydroxymethyl)oxetan-3-yl)sulfonyl)cyclopropyl)methyl)-1-methyl-7-oxo-4,5,6,7-tetrahydro-1H-pyrazolo[3,4-c]pyridine-3-carboxamide] | 3 nM | 74 nM |  |
| Cn1nc(C(=O)NCc2ccc(C#N)cc2)c2c1C(=O)N(CC1(S(=O)(=O)C3(CN)COC3)CC1)CC2 [Example 174, 6-((1-((3-(aminomethyl)oxetan-3-yl)sulfonyl)cyclopropyl)methyl)-N-(4-cyanobenzyl)-1-methyl-7-oxo-4,5,6,7-tetrahydro-1H-pyrazolo[3,4-c]pyridine-3-carboxamide] |  | 212 nM | 6 nM |
| COCC(C)(COC)S(=O)(=O)C1(CN2CCc3c(C(=O)NCc4ccc(C#N)cc4)nn(C)c3C2=O)CC1 [Example 179, N-(4-Cyanobenzyl)-6-((1-((1,3-dimethoxy-2-methylpropan-2-yl)sulfonyl)cyclopropyl)methyl)-1-methyl-7-oxo-4,5,6,7-tetrahydro-1H-pyrazolo[3,4-c]pyridine-3-carboxamide] | 2 nM | 49 nM |  |
| Cn1nc(C(=O)NCc2ccc(C#N)cc2)c2c1C(=O)N(CC1(S(=O)(=O)C(C)(CN)CO)CC1)CC2 (stereo not drawn) [Example 183, 6-((1-((1-Amino-3-hydroxy-2-methylpropan-2-yl)sulfonyl)cyclopropyl)methyl)-N-(4-cyanobenzyl)-1-methyl-7-oxo-4,5,6,7-tetrahydro-1H-pyrazolo[3,4-c]pyridine-3-carboxamide] | 5 nM | 220 nM |  |
| Cn1nc(C(=O)NCc2ccc(Cl)cc2)c2c1C(=O)N(CC1(S(=O)(=O)C(C)(C)[C@@H](O)CO)CC1)CC2 [Example 190, (S)—N-(4-Chlorobenzyl)-6-((1-((3,4-dihydroxy-2-methylbutan-2-yl)sulfonyl)cyclopropyl)methyl)-1-methyl-7-oxo-4,5,6,7-tetrahydro-1H-pyrazolo[3,4-c]pyridine-3-carboxamide] | 1 nM | 19 nM |  |
| Cn1nc(C(=O)NCc2ccc(Cl)cc2)c2c1C(=O)N(CC1(S(=O)(=O)C(C)(C)[C@H](O)CO)CC1)CC2 [Example 191, (R)—N-(4-Chlorobenzyl)-6-((1-((3,4-dihydroxy-2-methylbutan-2-yl)sulfonyl)cyclopropyl)methyl)-1-methyl-7-oxo-4,5,6,7-tetrahydro-1H-pyrazolo[3,4-c]pyridine-3-carboxamide] | 1 nM | 5 nM |  |
| Cn1nc(C(=O)NCc2ccc(C#N)cc2)c2c1C(=O)N(CC1(S(=O)(=O)C(C)(C)[C@@H](O)CO)CC1)CC2 [Example 192, (S)-N-(4-Cyanobenzyl)-6-((1-((3,4-dihydroxy-2-methylbutan-2-yl)sulfonyl)cyclopropyl)methyl)-1-methyl-7-oxo-4,5,6,7-tetrahydro-1H-pyrazolo[3,4-c]pyridine-3-carboxamide] | 1 nM | 35 nM |  |
| Cn1nc(C(=O)NCc2ccc(C#N)cc2)c2c1C(=O)N(CC1(S(=O)(=O)C3(C(O)CN)CC3)CC1)CC2 (stereo not drawn) [Example 208, 6-((1-((1-(2-Amino-1-hydroxyethyl)cyclopropyl)sulfonyl)cyclopropyl)methyl)-N-(4-cyanobenzyl)-1-methyl-7-oxo-4,5,6,7-tetrahydro-1H-pyrazolo[3,4-c]pyridine-3-carboxamide] | 1 nM | 51 nM |  |
| Cn1nc(C(=O)NCc2ccc(Cl)cc2)c2c1C(=O)N(CC1(S(=O)(=O)C3(C(O)CN)CC3)CC1)CC2 (stereo not drawn) [Example 209, 6-((1-((1-(2-Amino-1-hydroxyethyl)cyclopropyl)sulfonyl)cyclopropyl)methyl)-N-(4-chlorobenzyl)-1-methyl-7-oxo-4,5,6,7-tetrahydro-1H-pyrazolo[3,4-c]pyridine-3-carboxamide] | 1 nM | 10 nM |  |
| Cn1nc(C(=O)NCc2ccc(C#N)cc2)c2c1C(=O)N(CC1(S(=O)(=O)C(C)(C)[C@H](N)CO)CC1)CC2 [Example 213, (R)-6-((1-((3-Amino-4-hydroxy-2-methylbutan-2-yl)sulfonyl)cyclopropyl)methyl)-N-(4-cyanobenzyl)-1-methyl-7-oxo-4,5,6,7-tetrahydro-1H-pyrazolo[3,4-c]pyridine-3-carboxamide] |  | 81 nM | 2 nM |
| Cn1nc(C(=O)NCc2ccc(Cl)cc2)c2c1C(=O)N(CC1(S(=O)(=O)C(C)(C)[C@H](N)CO)CC1)CC2 [Example 214, (R)-6-((1-((3-Amino-4-hydroxy-2-methylbutan-2-yl)sulfonyl)cyclopropyl)methyl)-N-(4-chlorobenzyl)-1-methyl-7-oxo-4,5,6,7-tetrahydro-1H-pyrazolo[3,4-c]pyridine-3-carboxamide hydrochloride] | 3 nM | 42 nM |  |
